The values that follow come from US20160237044A1, “SUBSTITUTED PHENYLALANINE DERIVATIVES” (BAYER PHARMA AKTIENGESELLSCHAFT, priority 2013, published 2016).

Where a name gives a salt, the structure may show the parent alone. Read-outs that look alike come from different tables or passages of the source.

For one assay, the system named is plasma. In words: Determination of anticoagulatory activity: activated partial thromboplastin time (aPTT) in plasma. The assay is classed as biochemical, human. The conditions noted are these: concentration of test substance which brings about a 1.5-fold extension of the aPTT, C.K. Prest kit, 37° C. The method, then: a.4) Determination of Anticoagulatory Activity
The anticoagulatory activity of the test substances is determined in vitro in human and animal plasma (for example mouse, rat, rabbit, pig and dog plasma). To this end, blood is drawn off in a mixing ratio of sodium citrate/blood of 1:9 using a 0.11 molar sodium citrate solution as receiver. Immediately after the blood has been drawn off, it is mixed thoroughly and centrifuged at about 4000 g for 15 minutes. The supernatant is pipetted off.
The activated partial thromboplastin time (aPTT) is determined in the presence of varying concentrations of test substance or the corresponding solvent using a commercial test kit (C.K. Prest from Diagnostica Stago). The test compounds are incubated with the plasma and the PTT reagent (cephalin, kaolin) at 37° C. for 3 minutes. Coagulation is then started by addition of a 25 mM aqueous calcium chloride solution, and the time when coagulation occurs is determined. The concentration of test substance which brings about a 1.5-fold extension of the aPTT is determined.

Another assay addresses T1, human factor XIa (Homo sapiens, UniProt P03951).
T1 construct: purchased Kordia
The assay is described as follows: Measurement of FXIa inhibition (fluorogenic peptide substrate Boc-Glu(OBzl)-Ala-Arg-AMC). The class given is biochemical. The method, then:
a.1) Measurement of FXIa Inhibition
The factor XIa inhibition of the substances according to the invention is determined using a biochemical test system which utilizes the reaction of a peptidic factor XIa substrate to determine the enzymatic activity of human factor XIa. Here, factor XIa cleaves from the peptic factor XIa substrate the C-terminal aminomethylcoumarin (AMC), the fluorescence of which is measured. The determinations are carried out in microtitre plates.
In each case 1 μl of the diluted substance solutions is placed into the wells of white microtitre plates from Greiner (384 wells). […] After 15 min of incubation, the enzyme reaction is started by addition of 20 μl of the factor XIa substrate Boc-Glu(OBzl)-Ala-Arg-AMC dissolved in assay buffer (10 μM in assay buffer) from Bachem, the mixture is incubated at room temperature (22° C.) for 30 min and fluorescence is then measured (excitation: 360 nm, emission: 460 nm). The measured emissions of the test batches with test substance are compared to those of control batches without test substance (only dimethyl sulphoxide instead of test substance in dimethyl sulphoxide), and IC50 values are calculated from the concentration/activity relationships.

[1] abbreviates: factor XIa from Kordia, 15 min preincubation, 30 min at 22° C., fluorescence, read-out: IC50.

T1 sequence (P03951 388-625 limits assumed): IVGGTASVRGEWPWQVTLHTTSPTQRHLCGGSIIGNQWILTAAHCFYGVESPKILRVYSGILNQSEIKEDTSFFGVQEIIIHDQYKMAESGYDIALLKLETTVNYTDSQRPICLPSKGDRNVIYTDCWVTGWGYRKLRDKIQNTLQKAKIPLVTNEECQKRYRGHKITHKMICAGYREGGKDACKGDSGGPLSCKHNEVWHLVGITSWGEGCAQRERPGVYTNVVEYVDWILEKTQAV
T1 sequence (P03951 19-387 partner limits assumed): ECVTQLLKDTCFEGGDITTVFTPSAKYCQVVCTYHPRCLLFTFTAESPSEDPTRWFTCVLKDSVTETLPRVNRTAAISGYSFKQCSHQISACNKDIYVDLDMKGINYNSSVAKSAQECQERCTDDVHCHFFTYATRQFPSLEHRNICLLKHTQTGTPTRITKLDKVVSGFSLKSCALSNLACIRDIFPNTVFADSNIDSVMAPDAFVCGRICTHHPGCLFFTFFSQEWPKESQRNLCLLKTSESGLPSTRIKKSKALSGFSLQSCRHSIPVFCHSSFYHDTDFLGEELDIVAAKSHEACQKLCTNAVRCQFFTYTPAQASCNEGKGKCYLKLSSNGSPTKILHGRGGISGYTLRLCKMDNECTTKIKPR

The term IC50 denotes the concentration at which inhibition is half-maximal. For the molecule `Cc1cc(S(=O)(=O)NC2CCNCC2)ccc1-c1ccc(C[C@H](NC(=O)[C@H]2CC[C@H](CN)CC2)C(=O)Nc2ccc(-c3nnn[nH]3)cc2)cc1` [Example 1, trans-4-(Aminomethyl)-N-[(2S)-3-[2′-methyl-4′-(piperidin-4-ylsulphamoyl)biphenyl-4-yl]-1-oxo-1-{[4-(1H-tetrazol-5-yl)phenyl]amino}propan-2-yl]cyclohexanecarboxamide hydrochloride], the “Concentration for 1.5-fold aPTT extension” value in the assay with plasma came out at 0.1 µmol/L. Besides, on human factor XIa (setting [1]), the IC50 is 1.1 nM.

For the molecule `NC[C@H]1CC[C@H](C(=O)N[C@@H](Cc2ccc(-c3ccc(N4CCNCC4)cc3)cc2)C(=O)Nc2ccc(-c3nn[nH]n3)cc2)CC1` [Example 2, trans-4-(Aminomethyl)-N-[(2S)-1-oxo-3-[4′-(piperazin-1-yl)biphenyl-4-yl]-1-{[4-(2H-tetrazol-5-yl)phenyl]amino}propan-2-yl]cyclohexanecarboxamide hydrochloride], at human factor XIa (setting [1]), the IC50 turned out to be 4.3 nM.

Take `COCCOc1ccc(-c2ccc(C[C@H](NC(=O)[C@H]3CC[C@H](CN)CC3)C(=O)Nc3ccc(-c4nn[nH]n4)cc3)cc2)cc1` [Example 3, trans-4-(Aminomethyl)-N-[(2S)-3-[4′-(2-methoxyethoxy)biphenyl-4-yl]-1-oxo-1-{[4-(2H-tetrazol-5-yl)phenyl]amino}propan-2-yl]cyclohexanecarboxamide hydrochloride]: on human factor XIa (setting [1]), the IC50 turned out to be 8.1 nM.

Take `CN1CCN(c2ccc(-c3ccc(C[C@H](NC(=O)[C@H]4CC[C@H](CN)CC4)C(=O)Nc4ccc(-c5nn[nH]n5)cc4)cc3)cc2)CC1` [Example 4, trans-4-(Aminomethyl)-N-[(2S)-3-[4′-(4-methylpiperazin-1-yl)biphenyl-4-yl]-1-oxo-1-{[4-(2H-tetrazol-5-yl)phenyl]amino}propan-2-yl]cyclohexanecarboxamide hydrochloride]: the IC50 at human factor XIa (setting [1]) came to 18 nM.

With `NC[C@H]1CC[C@H](C(=O)N[C@@H](Cc2ccc(-c3ccc(N4CCOCC4)cc3)cc2)C(=O)Nc2ccc(-c3nn[nH]n3)cc2)CC1` [Example 5, trans-4-(Aminomethyl)-N-[(2S)-3-[4′-(morpholin-4-yl)biphenyl-4-yl]-1-oxo-1-{[4-(2H-tetrazol-5-yl)phenyl]amino}propan-2-yl]cyclohexanecarboxamide hydrochloride], at human factor XIa, the IC50 was determined as 5.7 nM.

On to `NC[C@H]1CC[C@H](C(=O)N[C@@H](Cc2ccc(-c3ccc(N4CCNCC4)cc3)cc2)C(=O)Nc2ccc(-c3noc(=O)[nH]3)cc2)CC1` [Example 6, trans-4-(Aminomethyl)-N-{(2S)-1-oxo-1-{[4-(5-oxo-4,5-dihydro-1,2,4-oxadiazol-3-yl)phenyl]amino}-3-[4′-(piperazin-1-yl)biphenyl-4-yl]propan-2-yl}cyclohexanecarboxamide hydrochloride], for which the IC50 on human factor XIa (setting [1]) amounted to 24 nM.

`COC(=O)c1ccc(-c2ccc(C[C@H](NC(=O)[C@H]3CC[C@H](CN)CC3)C(=O)Nc3ccc(-c4nn[nH]n4)cc3)cc2)cc1` [Example 7, Methyl 4′-[(2S)-2-({[trans-4-(aminomethyl)cyclohexyl]carbonyl}amino)-3-oxo-3-{[4-(2H-tetrazol-5-yl)phenyl]amino}propyl]biphenyl-4-carboxylic acid hydrochloride]: at human factor XIa (setting [1]), the IC50 was 3.6 nM.

As to `NC[C@H]1CC[C@H](C(=O)N[C@@H](Cc2ccc(-c3ccc(S(=O)(=O)NC4CCNCC4)cc3C(F)(F)F)cc2)C(=O)Nc2ccc(-c3nn[nH]n3)cc2)CC1` [Example 8, trans-4-(Aminomethyl)-N-[(2S)-1-oxo-3-[4′-(piperidin-4-ylsulphamoyl)-2′-(trifluoromethyl)biphenyl-4-yl]-1-{[4-(2H-tetrazol-5-yl)phenyl]amino}propan-2-yl]cyclohexanecarboxamide hydrochloride], the “Concentration for 1.5-fold aPTT extension” value in the assay with plasma was 0.08 µmol/L. Besides, the IC50 on human factor XIa (setting [1]) was 1 nM.

Regarding `Cc1cc(NC(=O)CNC(=O)CNC(=O)CN)ccc1-c1ccc(C[C@H](NC(=O)[C@H]2CC[C@H](CN)CC2)C(=O)Nc2ccc(-c3nn[nH]n3)cc2)cc1` [Example 9, Glycylglycyl-N-{4′-[(2S)-2-({[trans-4-(aminomethyl)cyclohexyl]carbonyl}amino)-3-oxo-3-{[4-(2H-tetrazol-5-yl)phenyl]amino}propyl]-2-methylbiphenyl-4-yl}glycinamide hydrochloride], the IC50 at human factor XIa (setting [1]) worked out at 8.4 nM.

For `Cc1cc(S(=O)(=O)NC2CCNC(C)C2)ccc1-c1ccc(C[C@H](NC(=O)[C@H]2CC[C@H](CN)CC2)C(=O)Nc2ccc(-c3nn[nH]n3)cc2)cc1` (stereo partly drawn) [Example 10, trans-4-(Aminomethyl)-N-[(2S)-3-(2′-methyl-4′-{[(2-methylpiperidin-4-yl]sulphamoyl}biphenyl-4-yl)-1-oxo-1-{[4-(2H-tetrazol-5-yl)phenyl]amino}propan-2-yl]cyclohexanecarboxamide hydrochloride], in the assay with plasma, the “Concentration for 1.5-fold aPTT extension” value worked out at 0.1 µmol/L. Further, the IC50 on human factor XIa (setting [1]) was 1.1 nM.

Consider `COC(=O)c1ccc(-c2ccc(C[C@H](NC(=O)[C@H]3CC[C@H](CN)CC3)C(=O)Nc3ccc(-c4nn[nH]n4)cc3)cc2)c(Cl)c1.Cl` [Example 11, Methyl 4′-[(2S)-2-({[trans-4-(aminomethyl)cyclohexyl]carbonyl}amino)-3-oxo-3-{[4-(2H-tetrazol-5-yl)phenyl]amino}propyl]-2-chlorobiphenyl-4-carboxylate hydrochloride], for which, in the assay on plasma, the “Concentration for 1.5-fold aPTT extension” value came out at 0.49 µmol/L. Also, the IC50 at human factor XIa (setting [1]) worked out at 1.9 nM.

Take `Cc1cc(S(=O)(=O)N(C)C)ccc1-c1ccc(C[C@H](NC(=O)[C@H]2CC[C@H](CN)CC2)C(=O)Nc2ccc3c(=O)[nH][nH]c3c2)cc1` [Example 13, trans-4-(Aminomethyl)-N-{(2S)-3-[4′-(dimethylsulphamoyl)-2′-methylbiphenyl-4-yl]-1-oxo-1-[(3-oxo-2,3-dihydro-1H-indazol-6-yl)amino]propan-2-yl}cyclohexanecarboxamide hydrochloride]: the “Concentration for 1.5-fold aPTT extension” value in the assay with plasma came to 0.07 µmol/L. The IC50 on human factor XIa (setting [1]) is 3.1 nM.

Turning to `Cc1cc(S(=O)(=O)NC(C)C)ccc1-c1ccc(C[C@H](NC(=O)[C@H]2CC[C@H](CN)CC2)C(=O)Nc2ccc3c(=O)[nH][nH]c3c2)cc1` [Example 14, trans-4-(Aminomethyl)-N-{(2S)-3-[4′-(isopropylsulphamoyl)-2′-methylbiphenyl-4-yl]-1-oxo-1-[(3-oxo-2,3-dihydro-1H-indazol-6-yl)amino]propan-2-yl}cyclohexanecarboxamide hydrochloride], the IC50 at human factor XIa (setting [1]) was determined as 3.2 nM.

As to `Cc1cc(S(=O)(=O)N[C@@H]2CCNC2)ccc1-c1ccc(C[C@H](NC(=O)[C@H]2CC[C@H](CN)CC2)C(=O)Nc2ccc(-c3nn[nH]n3)cc2)cc1` [Example 16, trans-4-(Aminomethyl)-N-[(2S)-3-{2′-methyl-4′-[(3R)-pyrrolidin-3-ylsulphamoyl]biphenyl-4-yl}-1-oxo-1-{[4-(2H-tetrazol-5-yl)phenyl]amino}propan-2-yl]cyclohexanecarboxamide hydrochloride], the “Concentration for 1.5-fold aPTT extension” value with plasma is 0.11 µmol/L. Also, the IC50 on human factor XIa (setting [1]) was found to be 1.3 nM.

On to `CCN(CC)S(=O)(=O)c1ccc(-c2ccc(C[C@H](NC(=O)[C@H]3CC[C@H](CN)CC3)C(=O)Nc3ccc4c(=O)[nH][nH]c4c3)cc2)c(C)c1` [Example 17, trans-4-(Aminomethyl)-N-{(2S)-3-[4′-(diethylsulphamoyl)-2′-methylbiphenyl-4-yl]-1-oxo-1-[(3-oxo-2,3-dihydro-1H-indazol-6-yl)amino]propan-2-yl}cyclohexanecarboxamide hydrochloride], for which the “Concentration for 1.5-fold aPTT extension” value with plasma was 0.13 µmol/L. Also, the IC50 at human factor XIa (setting [1]) came out at 3.5 nM.

As to `CNS(=O)(=O)c1ccc(-c2ccc(C[C@H](NC(=O)[C@H]3CC[C@H](CN)CC3)C(=O)Nc3ccc4c(=O)[nH][nH]c4c3)cc2)c(C)c1` [Example 18, trans-4-(Aminomethyl)-N-{(2S)-3-[2′-methyl-4′-(methylsulphamoyl)biphenyl-4-yl]-1-oxo-1-[(3-oxo-2,3-dihydro-1H-indazol-6-yl)amino]propan-2-yl}cyclohexanecarboxamide hydrochloride], the “Concentration for 1.5-fold aPTT extension” value with plasma is 0.13 µmol/L. For the same molecule, at human factor XIa (setting [1]), the IC50 was 5.4 nM.

With `NC[C@H]1CC[C@H](C(=O)N[C@@H](Cc2ccc(-c3ccc(S(=O)(=O)NCCO)cc3)cc2)C(=O)Nc2ccc(-c3nnc(Cl)[nH]3)cc2)CC1` [Example 19, trans-4-(Aminomethyl)-N-[(2S)-1-{[4-(5-chloro-4H-1,2,4-triazol-3-yl)phenyl]amino}-3-{4′-[(2-hydroxyethyl)sulphamoyl]biphenyl-4-yl}-1-oxopropan-2-yl]cyclohexanecarboxamide hydrochloride], in the assay with plasma, the “Concentration for 1.5-fold aPTT extension” value is 0.16 µmol/L. The IC50 on human factor XIa (setting [1]) is 2.3 nM.
